Experimental findings from PubChem BioAssay AID1996 are described below.

Usually solubility (kinetic) stands for solubility judged after dilution from a stock solution rather than from solid.

≈ marks a conversion by molar mass, not a printed value.

The conditions of the data set: buffer; pH 7.4; 200.0 µM.
Take `CCOC(=O)C1=C(C)N(C)C(=O)NC1c1ccc2c(c1)OCO2` (configuration not stated): the solubility (kinetic) was above 47.7 µg/mL.

For `CC1CCCCN1C(=O)CSc1nc(-c2ccccc2)cn1N` (configuration not stated), the kinetic solubility was above 49.6 µg/mL.

`O=C(Nc1nc(-c2ccc(F)cc2)cs1)c1cccnc1` gave a kinetic solubility of 0.6 µg/mL (≈ 2 µM).

For `CSc1ccccc1NC(=O)COc1ccc2c(c1)OCO2`, the solubility (kinetic) worked out at 41.4 µg/mL (≈ 130 µM).

For the molecule `CN1CCN(S(=O)(=O)c2cc([N+](=O)[O-])ccc2Cl)CC1`, the solubility (kinetic) was above 48 µg/mL.

In turn, `CCn1c(C)c(C)c2cc(C(=O)NC3CCCCCC3)ccc21` yielded a solubility (kinetic) of 0.5 µg/mL (≈ 1.6 µM).

Molecule `O=C1NCCN/C1=C\C(=O)c1ccc(Br)cc1` gave a solubility (kinetic) of 17.8 µg/mL (≈ 60.3 µM).

In the case of `CCc1nc2ccccc2n1CC1CC1(Cl)Cl` (configuration not stated), the kinetic solubility was 34.9 µg/mL (≈ 130 µM).

In the case of `COC(=O)c1ccc2c(c1)NC(=O)c1ccccc1S2`, the solubility (kinetic) stood at 3.9 µg/mL (≈ 13.7 µM).

As for `O=C(Nc1ccccc1Cl)OC1CCCCC1`, the kinetic solubility is below 0.5 µg/mL.

Molecule `Cc1onc(-c2ccccc2)c1C(=O)N1CCCN2C(=O)c3ccccc3C21` (configuration not stated) had a solubility (kinetic) of 48.7 µg/mL (≈ 130 µM).

For `CCOC(=O)C1=C(C)NC(=O)NC1/C=C/c1ccccc1OC` (configuration not stated), the solubility (kinetic) amounted to 2.6 µg/mL (≈ 8.22 µM).

`COc1ccccc1NC(=O)Nc1ccc(C)cn1` gave a kinetic solubility of 0.8 µg/mL (≈ 3.11 µM).

Molecule `O=C(CNC(=O)c1ccc(Br)cc1)Nc1ccc2c(c1)CCC2` returned a solubility (kinetic) of 2.5 µg/mL (≈ 6.7 µM).

`Cn1cnnc1SCC(=O)Nc1ccc(F)cc1` yielded a kinetic solubility above 39.9 µg/mL.

In turn, `CC1=C(C(=O)Nc2cccc(C(=O)NC(C)C)c2)SCCO1` yielded a kinetic solubility of 47.9 µg/mL (≈ 149 µM).

The molecule `COc1ccc2c(c1)c(C(C)=O)c(C)n2C` yielded a solubility (kinetic) above 32.6 µg/mL.

In the case of `Cc1cc(C)cc(NC2=NCCCS2)c1`, the solubility (kinetic) is 32.1 µg/mL (≈ 146 µM).

The molecule `O=C(NC12CC3CC(CC(C3)C1)C2)c1cncc(Br)c1` displayed a solubility (kinetic) of 8.5 µg/mL (≈ 25.4 µM).

The molecule `C[C@H](NC(=O)c1ccco1)C(=O)N1CCCC1` returned a kinetic solubility above 35.4 µg/mL.

The molecule `O=C(c1cc2cc(F)ccc2[nH]1)N1CCC2(CC1)OCCO2` returned a kinetic solubility of 20.2 µg/mL (≈ 66.4 µM).

Consider `O=C(O)c1cccc(-n2c(O)c(C=C3N=c4ccccc4=N3)sc2=S)c1`, for which the kinetic solubility is above 57.2 µg/mL.

Regarding `NS(=O)(=O)c1ccc(NC(=O)CNC(=O)c2ccc3c(c2)OCO3)cc1`, the solubility (kinetic) is 10 µg/mL (≈ 26.5 µM).

Regarding `Cc1ccc(C)c(NS(=O)(=O)c2ccc3oc(=O)ccc3c2)c1`, the solubility (kinetic) was 1.4 µg/mL (≈ 4.25 µM).

Regarding `COc1ccc(Cl)cc1C(=O)NN=C1CCCC1`, the solubility (kinetic) was above 40 µg/mL.

Turning to `O=C(C1CC1)N1CCN(c2ccc(F)cc2)CC1`, the solubility (kinetic) came out at 34.7 µg/mL (≈ 140 µM).

In turn, `CC(=O)c1ccc(N2CCC(C)CC2)c(F)c1` yielded a kinetic solubility of 6 µg/mL (≈ 25.5 µM).

Molecule `Nc1ncnc(Sc2ncccn2)c1[N+](=O)[O-]` showed a kinetic solubility above 37.5 µg/mL.

On to `Cc1ccc(NC(=O)CCCc2ccccc2)nc1`, for which the solubility (kinetic) was 36.6 µg/mL (≈ 144 µM).

Consider `Cc1ccc(C)c(N2C(=O)C3C4C=CC(CC4)C3C2=O)c1` (configuration not stated), for which the kinetic solubility amounted to 14.9 µg/mL (≈ 53 µM). This solubility kinetic is about 2.5-fold lower than that of the molecule before.

Turning to `COc1ccc(NC(=O)NCc2ccc(Cl)cc2)cc1`, the kinetic solubility was 0.3 µg/mL (≈ 1.03 µM).

As for `NC(=O)c1c(/N=C/c2cccs2)sc2c1CCCC2`, the kinetic solubility came to 18.4 µg/mL (≈ 63.4 µM).

Turning to `O=[N+]([O-])c1ccc(N2CCN(Cc3cccc([N+](=O)[O-])c3)CC2)cc1`, the kinetic solubility is 7.3 µg/mL (≈ 21.3 µM).

Take `Cc1ccccc1-n1c(=O)n(Cc2ccccc2)c(=O)c2[nH]cnc21`: the kinetic solubility is above 49.9 µg/mL.

Regarding `Cc1cc(O)c(C2(O)C(=O)Nc3ccccc32)cc1C` (configuration not stated), the solubility (kinetic) is above 40.4 µg/mL.

Molecule `COc1ccc2oc(C(=O)Nc3nc(C)cs3)c(C)c2c1` displayed a kinetic solubility of 4.8 µg/mL (≈ 15.9 µM).

For `CC(=O)Nc1ccc(S(=O)(=O)Nc2nc3ccccc3nc2Nc2ccc(C(=O)O)c(O)c2)cc1`, the kinetic solubility is above 74 µg/mL.

`Cc1cc(OC(F)F)ccc1NC(=S)NC1CCCC1` came in with a kinetic solubility above 45.1 µg/mL.

Regarding `Cc1ccc(NC(=O)CNC(=O)COc2ccccc2)nc1`, the solubility (kinetic) turned out to be 14.9 µg/mL (≈ 49.8 µM).

Consider `Cc1cccc(C(=O)OCC(=O)NC2CCCCCCC2)c1`, for which the kinetic solubility came to 21.6 µg/mL (≈ 71.2 µM).

On to `N#C/C(=C\c1cccnc1)c1ccccn1`, for which the solubility (kinetic) was above 31.1 µg/mL.

As for `COc1ccccc1C(=O)Nc1ccc2c(c1)n(C)c(=O)n2C`, the solubility (kinetic) was determined as 43.6 µg/mL (≈ 140 µM).

In turn, `O=C(CCNC(=O)c1ccccc1)OCC(=O)c1ccccc1` registered a kinetic solubility above 46.7 µg/mL.

The molecule `Cc1nc2ccccc2c2c1CC(C(C)(Cl)Br)O2` (configuration not stated) gave a kinetic solubility of 26.7 µg/mL (≈ 81.7 µM).

The molecule `Brc1ccc(Nc2nc(-c3cccnc3)cs2)cc1` gave a kinetic solubility of 0.3 µg/mL (≈ 0.903 µM).

Turning to `CN1CCCN(c2ccc([N+](=O)[O-])nc2)CC1`, the kinetic solubility is above 35.4 µg/mL.

For the molecule `Cc1ccc(NC2SC(=O)N(Cc3cccc(C(=O)O)c3)C2=O)c(C)c1` (configuration not stated), the solubility (kinetic) is 53.1 µg/mL (≈ 143 µM).

Consider `CCCOC(=O)C1=C(C)NC(=O)NC1c1cccc2ccccc12` (configuration not stated), for which the solubility (kinetic) was below 0.3 µg/mL.

Turning to `O=C(COc1ccc(NC(=O)c2ccccc2)cc1)c1ccccc1`, the solubility (kinetic) came out at 1.1 µg/mL (≈ 3.32 µM).

Turning to `Cc1ccccc1C(=O)NC(=S)Nc1ncccn1`, the solubility (kinetic) worked out at 15.6 µg/mL (≈ 57.3 µM).

`O=C(Nc1ccccc1)Nc1ccc2ccccc2c1`: the kinetic solubility is below 0.3 µg/mL.

Molecule `COC(=O)c1ccc(NC(=S)NCCCN2CCCC2=O)cc1` returned a solubility (kinetic) above 50.3 µg/mL.
